According to US20250282831A1, “NOVEL PROTEIN AND NUCLEIC ACID SEQUENCES FOR COVID-19 VACCINES” (Dompe' Farmaceutici SPA, priority 2021, published 2025):

Key:
[1] = test system: Osteoclasts from RAW264.7 macrophages; test: Estrogen-like activity: TRAP activity by ELISA in osteoclasts; assay type: cell-based, murine; conditions: RANKL-differentiated osteoclasts; 24 h; 1 nM Estradiol or 10 ng/ml spike proteins
[2] = test system: MCF-7 breast cancer cells; test: BrdU proliferation assay in MCF-7 breast cancer cell line; assay type: cell-based; conditions: 24 hours
[3] = test system: THP-1; test: Proteome profile (cytokine array) of conditioned media from differentiated THP-1 cells; assay type: cell-based, Human

Row | SMILES | TRAP levels, Mean [1] [U/L] | cell proliferation, Mean ([2]; peptides 10 ug/ml, spike 10 ng/ml, raloxifene 2 μM) | effect on estradiol- and spike-induced proliferation (in words) ([2]; co-treatment with raloxifene 2 μM) | effect on spike-induced IL-8 up-regulation (in words) [3] | effect on CHI3L1 up-regulation (in words) ([3]; co-treatment with spike and/or estradiol, 24 h) | effect on OPN upregulation (in words) ([3]; co-treatment with spike, 24 h)
1 | C[C@]12CC[C@@H]3c4ccc(O)cc4CC[C@H]3[C@@H]1CC[C@@H]2O [Estradiol] | 0.25 | – | – | – | – | –
2 | O=C(c1ccc(OCCN2CCCCC2)cc1)c1c(-c2ccc(O)cc2)sc2cc(O)ccc12 [ral, Raloxifene] | – | 109.5 percentage of control | counteracted | effective in counteracting the effect of spike | able to counteract only the effects of spike alone | able to counteract the effects of spike alone
